From patent publication US6693081B2, “Bone stimulating factor” (Osteopharm Inc., priority 1995, dated 2004)
“Also recorded” adds a separate entry of the source.

Experiments:
male Sprague-Dawley rats [1] = experiment: Bone mineral apposition rate in rats, second set of experiments (NAP-2V subsequences); assay type: in vivo, rat; conditions: for Group arithmetic mean of bone apposition rate: about 25 nmol injected in right thigh, male Sprague-Dawley rats, N=3-4, control 1.08
Method: In a second set of experiments, twenty-four male Sprague-Dawley rats (Charles River Laboratory) were divided into six groups of four. Each of the first group, the control group, was injected in the right thigh with 200 μl of 0.1% acetic acid solution. The rats of the other groups were each injected in the right thigh with about 200 μl of a 0.1% acetic acid solution containing about 25 nmol of a chemically synthesized polypeptide as follows:
Immediately after injection of the polypeptide (control) solution, each rat was injected in the right gluteus maximus with 200 μl of a 1 M tetracycline hydrochloride (Sigma Chemical) solution. This dosage of tetracycline is about 16 mg per kg of animal body weight.
About 48 hours later, each rat was injected in the left gluteus maximus with the same dosage of tetracycline. Twenty-four hours later, the rats were sacrificed by CO2 narcosis and the right femur taken for bone mineral apposition rate determination. One rat died during the course of the experiments.
Immediately after dissection, a bone sample was fixed in 10% formaldehyde solution at pH 7.4. Later the same day, a 1:1 H2O-acetone solution was exchanged for the formaldehyde solution. This was exchanged twice the following day with acetone. This was exchanged the following day by a 1:1 acetone-Spurr's medium solution, which was exchanged later the same day with Spurr's medium. The following day each sample was embedded in a fresh change of Spurr's medium and cured at 60° C. for 24 hours, followed by curing at 80° C. for 24 hours.
Each cured block was cut into 400 μm thick sections using a Leitz saw microtome equipped with a diamond charged blade. The relatively thick sections were ground down between two ground glass plates pre-roughened with carborundum powder to a final thickness of about 10 μm, water being used as the grinding lubricant. The thin sections were dried and mounted unstained in Permount (Fisher).
Measurements were made using a Leitz scanning light microscope photometer MPV-CD magnifying the sections 16×, as described in international patent application No. PCT/CA94/00144.

[2] = test system: female Sprague-Dawley rats; experiment: Bone mineral apposition rate in rats, third set of experiments (protected polypeptides); assay type: in vivo, rat; conditions: 100 nmoles; for Group arithmetic mean of bone apposition rate: female Sprague-Dawley rats, N=3, control 1.256; for Bone stimulatory activity (in words): rats
Method: The polypeptide having the sequence identified as SEQ ID NO:12 has two sites susceptible to cleavage by the peptidase plasmin, between the lysine-threonine and the lysine-asparagine residues, respectively. In a third set of experiments, nine female Sprague-Dawley rats (average weight, about 300 gm) were divided into three groups of three. Each of the first group, the control group, was injected with 400 μl of buffer solution, 50 mM sodium acetate adjusted to pH 4.5 followed immediately by 200 μl of a 1M tetracycline hydrochloride solution. The rats of the second group were each injected with 400 μl of buffer containing 100 nmoles of a chemically synthesized polypeptide having the sequence identified as SEQ ID NO:17 followed immediately by 200 μl of a 1 M tetracycline hydrochloride solution. The rats of the third group were each injected with 400 μl of buffer containing 100 nmoles of a chemically synthesized polypeptide having the sequence identified as SEQ ID NO:18 followed immediately by 200 μl of a 1M tetracycline hydrochloride solution.
After about 48 hours, a second dose of tetracycline hydrochloride was administered to each rat. After about another 24 hours, rats were sacrificed by carbon dioxide narcosis.
The right femur of each animal was taken and treated, as described above, and measurements made as described above.

[3] = test system: female Sprague-Dawley rats; experiment: Dose dependence of bone mineral apposition rate in rats, fourth set of experiments; assay type: in vivo, rat; conditions: N=4, control 1.320
Method: In a fourth set of experiments, dose dependence of the measured bone mineral apposition rate on the amount of polypeptide having SEQ ID NO:18 was evaluated. Twenty-eight female Sprague-Dawley rats (average weight, about 300 gm) were divided into seven groups of four. The rats were treated as described in the previous set of experiments except that the amount of test polypeptide varied as follows: 25, 50, 100, 200, 400 and 800 nmoles.

Saos-2 = Saos-2 osteoblastic osteosarcoma cell line; U.S. Pat. No. 5,304,542; cited from earlier work
G-292 = G-292 osteoblastic osteosarcoma cell line; U.S. Pat. No. 5,304,542; cited from earlier work
male Sprague-Dawley rats [4] = experiment: Bone mineral apposition rate in rats, first experiments (NAP-2, NAP-2V); assay type: in vivo, rat; conditions: 25 nmol; for Bone stimulatory effect (in words): rats; for Group arithmetic mean of bone apposition rate: subcutaneous injection, male Sprague-Dawley rats, N=5, right femur lower metaphysis, control 0.99
Method: Experiments were conducted simultaneously on three groups of male Sprague-Dawley rats, there being five rats in each group. Each rat weighed between 250 and 350 g. Each rat of the first group was given, by subcutaneous injection into the left gluteus maximus region, 200 μl of a 1% aqueous acetic acid solution containing 25 nmol (about 191 μg) of NAP-2 (SEQ ID NO:1). Each rat of the second group was similarly given 200 μl of a 1% aqueous acetic acid solution containing 25 nmol (about 207 μg) of NAP-2V (SEQ ID NO:2). Each rat of the third group, the control group, was similarly given 200 μl of 1% acetic acid solution.
Immediately following administration of the test solution, 300 μl of an aqueous solution of tetracycline hydrochloride was administered intramuscularly into the right gluteus maximus, the concentration of tetracycline being sufficient to obtain a dosage of about 24 mg/kg of rat body weight. A second dose of tetracycline hydrochloride solution was administered about 48 hours after the first dose. The rats were sacrificed about 24 hours after administration of the second dose of tetracycline.
Sections of the lower metaphysis of the right femur were used for bone measuring the bone mineral apposition rate. Processing of the bone material for measurement has been described previously. See, for example, international patent application No. PCT/CA 94/00144 published under No. WO 94/20615 on Sep. 15, 1994.

NAP-2V-(1-26) (DSDLYAELRCMCIKTTSGIHPKNIQS; OTHER INFORMATION: Description of Artificial Sequence: Chemically synthesized polypeptide) [SEQ ID NO: 11]
Group arithmetic mean of bone apposition rate (male Sprague-Dawley rats [1]): 1.47 μm per day | Effect on observed bone (mineral) apposition rate (in words) (male Sprague-Dawley rats [1]; about 25 nmol, rats): stimulate bone growth; also recorded: increase the observed bone apposition rate

NAP-2V-(10-26) (CMCIKTTSGIHPKNIQS; OTHER INFORMATION: Description of Artificial Sequence: Chemically synthesized polypeptide) [SEQ ID NO: 13, Cys Met Cys Ile Lys Thr Thr Ser Gly Ile His Pro Lys Asn Ile Gln Ser]
Group arithmetic mean of bone apposition rate (male Sprague-Dawley rats [1]): 1.18 μm per day | Effect on observed bone (mineral) apposition rate (in words) (male Sprague-Dawley rats [1]; about 25 nmol, rats): small increase

NAP-2V-(11-26) (MCIKTTSQIHPKNIQS; OTHER INFORMATION: Description of Artificial Sequence: Chemically synthesized polypeptide) [SEQ ID NO: 14, Met Cys Ile Lys Thr Thr Ser Gln Ile His Pro Lys Asn Ile Gln Ser]
Group arithmetic mean of bone apposition rate (male Sprague-Dawley rats [1]): 1.07 μm per day | Effect on observed bone (mineral) apposition rate (in words) (male Sprague-Dawley rats [1]; about 25 nmol, rats, listed as 14): do not appear to enhance bone growth | Effect on observed bone (mineral) apposition rate (in words) (male Sprague-Dawley rats [1]; about 25 nmol, rats, listed as NAP-2V-(11-26)): no effect

NAP-2V-(12-26) (CIKTTSGIHPKNIQS; OTHER INFORMATION: Description of Artificial Sequence: Chemically synthesized polypeptide) [SEQ ID NO: 15, Cys Ile Lys Thr Thr Ser Gly Ile His Pro Lys Asn Ile Gln Ser]
Group arithmetic mean of bone apposition rate (male Sprague-Dawley rats [1]): 1.04 μm per day | Effect on observed bone (mineral) apposition rate (in words) (male Sprague-Dawley rats [1]; about 25 nmol, rats, listed as 15): do not appear to enhance bone growth | Effect on observed bone (mineral) apposition rate (in words) (male Sprague-Dawley rats [1]; about 25 nmol, rats, listed as NAP-2V-(12-26)): no effect

NAP-2V-(13-26; gln^25→ glu^25) (IKTTSGIHPKNIES; OTHER INFORMATION: Description of Artificial Sequence: Chemically synthesized polypeptide) [SEQ ID NO: 12, Ile Lys Thr Thr Ser Gly Ile His Pro Lys Asn Ile Glu Ser]
Group arithmetic mean of bone apposition rate (male Sprague-Dawley rats [1]): 1.70 μm per day | Effect on observed bone (mineral) apposition rate (in words) (male Sprague-Dawley rats [1]; about 25 nmol, rats; gln^25→glu^25)): stimulate bone growth; also recorded: greater activity; also recorded: increase the observed bone apposition rate

SEQ ID NO: 17: Protected NAP-2V-(13-26; gln^25→glu^25): Xaa Lys Thr Thr Ser Gly Ile His Pro Lys Asn Ile Glu Xaa; N-acetyl isoleucine, serinamide (Ac-IKTTSGIHPKNIES-NH2; also: protecting groups)
Group arithmetic mean of bone apposition rate [2]: 1.859 μm/d | Bone stimulatory activity (in words) [2]: bond stimulatory activity

SEQ ID NO: 18: Protected NAP-2V-(15-22): Xaa Thr Ser Gly Ile His Pro Xaa; Xaa1 N-acetyl threonine, Xaa8 lysinamide (Ac-TTSGIHPK-NH2; also: protecting groups)
Group arithmetic mean of bone apposition rate [2]: 2.406 μm/d | Bone stimulatory activity (in words) [2]: greater bone stimulatory activity; also recorded: bond stimulatory activity | Bone apposition rate, mean ([3]; 25 nmol): 1.686 μm/day | Bone apposition rate, mean ([3]; 50 nmol): 1.753 μm/day | Bone apposition rate, mean ([3]; 100 nmol): 1.907 μm/day | Bone apposition rate, mean ([3]; 200 nmol): 2.209 μm/day | Bone apposition rate, mean ([3]; 400 nmol): 2.123 μm/day | Bone apposition rate, mean ([3]; 800 nmol): 2.139 μm/day

B1: Platelet factor 4 (protein)
chain: EAEEDGDLQCLCVKTTSQVRPRHITSLEVIKAQPHCPTAQLIATLKNGRKICLDLEAPLYKKIIKKLLES
modifications: OTHER INFORMATION: Description of Artificial Sequence: Chemically synthesized polypeptide
notes: seventy amino acid polypeptide
Effect on cell proliferation (in words) (Saos-2): inhibit proliferation | Effect on cell proliferation (in words) (G-292): inhibit proliferation

B2: NAP-2V (peptide)
chain: DSDLYAELRCMCIKTTSGIHPKNIQSLEVIGKGTHCNQVEVIATLKDGRKICLDPDAPRIKKIVQKKLAGDESAD
modifications: OTHER INFORMATION: Description of Artificial Sequence: Chemically synthesized polypeptide
notes: variant of NAP-2, 75 amino acids, chemically synthesized polypeptide
Bone stimulatory effect (in words) (male Sprague-Dawley rats [4]): bone stimulatory effects | Bone stimulatory effect (in words) (male Sprague-Dawley rats [4]; listed as SEQ ID NO:2): stimulate bone growth | Group arithmetic mean of bone apposition rate (male Sprague-Dawley rats [4]): 1.28 μm/d

B3: NAP-2 (peptide)
chain: AELRCMCIKTTSGIHPKNIQSLEVIGKGTHCNQVEVIATLKDGRKICLDPDAPRIKKIVQKKLAGDESAD
modifications: OTHER INFORMATION: Description of Artificial Sequence: Chemically synthesized polypeptide
Bone stimulatory effect (in words) (male Sprague-Dawley rats [4]): bone stimulatory effects | Bone stimulatory effect (in words) (male Sprague-Dawley rats [4]; listed as SEQ ID NO:1): stimulate bone growth | Group arithmetic mean of bone apposition rate (male Sprague-Dawley rats [4]): 1.23 μm/d
